# Results from ChEMBL document CHEMBL3259752, “Cell permeable vanX inhibitors as vancomycin re-sensitizing agents” (Bioorg Med Chem Lett, 2014).
# Active and inactive are the calls of the source. The calls are words filed in the database; no cut-off is given here.
# Key:
# [1] = Cytotoxicity against HEK293 cells after 72 hrs by MTT assay; format: cell-based; settings: human
# [2] = biological target: T1, D-alanyl-D-alanine dipeptidase (Enterococcus faecium, UniProt Q06241); test: Inhibition of Enterococcus faecium VanX expressed in Escherichia coli BL21 (DE3) cells using D-alanyl-alpha-R-phenylthioglycine as substrate by colorimetric assay
# T1 sequence (Q06241 whole entry): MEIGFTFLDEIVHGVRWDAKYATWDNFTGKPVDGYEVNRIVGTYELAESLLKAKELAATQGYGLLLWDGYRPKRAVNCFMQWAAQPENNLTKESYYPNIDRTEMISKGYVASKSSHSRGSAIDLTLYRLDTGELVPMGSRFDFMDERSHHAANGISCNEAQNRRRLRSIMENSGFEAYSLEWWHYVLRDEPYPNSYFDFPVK
# Enterococcus faecium [3] = test: Antibacterial activity against vancomycin-resistant Enterococcus faecium E12-2 assessed as growth inhibition by checkerboard analysis; format: functional, organism-based
# Enterococcus faecium [4] = test: Increase in vancomycin sensitivity in vancomycin-resistant Enterococcus faecium E12-2 assessed as reduction in vancomycin MIC at 212 ug/ml by checkerboard analysis; format: functional, organism-based
# Enterococcus faecium [5] = test: Increase in vancomycin sensitivity in vancomycin-resistant Enterococcus faecium E12-2 assessed as reduction in vancomycin MIC at 72 ug/ml by checkerboard analysis; format: functional, organism-based
Compound,CC50 at 72 h [1] [µM],Ki [2] [µM],inhibition (Enterococcus faecium [3]),Activity (Enterococcus faecium [4]),Activity (Enterococcus faecium [5])
C[C@@H](NC(=O)c1cccc(=S)n1O)C(=O)O,76,6.84,inactive,Active,
O=C(N[C@@H](C(=O)O)c1ccccc1)c1cccc(=S)n1O,64,2.74,inactive,,Active
C[C@@H](N)P(=O)(O)C[C@H](C(=O)O)c1ccccc1,,2.9,,,
CN[C@H](CC(C)C)C(=O)N[C@H]1C(=O)N[C@@H](CC(N)=O)C(=O)N[C@H]2C(=O)N[C@H]3C(=O)N[C@H](C(=O)N[C@H](C(=O)O)c4cc(O)cc(O)c4-c4cc3ccc4O)[C@H](O)c3ccc(c(Cl)c3)Oc3cc2cc(c3O[C@@H]2O[C@H](CO)[C@@H](O)[C@H](O)[C@H]2O[C@H]2C[C@](C)(N)[C@H](O)[C@H](C)O2)Oc2ccc(cc2Cl)[C@H]1O [VANCOMYCIN],> 100,,,,
CC1(C)S[C@@H]2[C@H](NC(=O)[C@H](N)c3ccc(O)cc3)C(=O)N2[C@H]1C(=O)O [AMOXICILLIN],24,,,,
C[C@H](CP(=O)(O)[C@@H](C)N)C(=O)O,,1.5,,,
CC(C)[C@H](CP(=O)(O)[C@@H](C)N)C(=O)O,,6.1,,,
